Test system: EGFR
Test: EGFR single-particle tracking and diffusion analysis (dark-field, anti-EGFR-AuNP)
Type: cell-based
Settings: ERK-KTR cells; NOExo treatment (complex of Example 1 + hν) or EGF treatment; untreated control 0.071
Text: To confirm whether the activation of ERK by NO generated from the complex of Example 1 was induced by other receptors or membrane features, thus perturbing other signaling pathways, such as the MAPK pathway activated by the […] of EGF receptors (EGFRs) or by nonspecific disturbances caused by the formation of cellular membranes like lipid rafts, individual EGFRs in live cells were tracked, and analyzed.
Time-lapse dark-field microscope images were taken every 20 ms for 10 s. Lateral diffusion motion of protein was analyzed by particle trajectories. TrackMate plugin on Image J was used for single-particle tracking and trajectory analysis. For each particle, mean square displacement (MSD) was calculated from the x, y position and time information obtained from trajectory analysis; MSD(t)=<(xi+n−xi)^2+(yi+n−yi)^2>. The MSD versus time intervals were plotted up to the time lag (t) equivalent to 1/10th of the trajectory duration, then fitted to a linear equation corresponding to the Brownian motion. Diffusion coefficient (D) was calculated from the slope of the first ten points of the MSD plot; MSD=4Dt.
For single-molecule tracking of EGFR, anti-EGFR (EGFR anti-bodies) was conjugated to gold nanoparticles (AuNPs, 50 nm in diameter) using the biotin-neutravidin interaction (FIG. 8A), achieving high specificity (FIG. 8B). […]

Question: How did the “diffusion coefficient of EGFR (DEGFR)” value turn out when “epidermal growth factor [EGF, reference compound]” was run?
Answer: Its value is 0.017 μm^2 s^−1.

— patent US11351260B2, “Photocleavable cobalt-nitrosyl complex and nitric oxide carrier containing the same” (DAEGU GYEONGBUK INSTITUTE OF SCIENCE AND TECHNOLOGY, priority 2019, dated 2022)
